# Reference: patent US7807701B2, “Dibenzylamine compounds and pharmaceutical use thereof” (Japan Tobacco Inc., priority 2002, dated 2010)
# Key:
# [1] = biological target: T1, CETP (Homo sapiens, UniProt P11597); test: Inhibitory effect in vitro on CETP activity in total plasma; type: biochemical; conditions: plasma of healthy subject with [3H]CE-HDL3, 37° C., 4 hr; average values
# T1 construct: The donor lipoprotein obtained above was added to plasma of healthy subject; from tissue; host or cells: whole plasma of healthy subject
# T1 sequence (P11597 18-493): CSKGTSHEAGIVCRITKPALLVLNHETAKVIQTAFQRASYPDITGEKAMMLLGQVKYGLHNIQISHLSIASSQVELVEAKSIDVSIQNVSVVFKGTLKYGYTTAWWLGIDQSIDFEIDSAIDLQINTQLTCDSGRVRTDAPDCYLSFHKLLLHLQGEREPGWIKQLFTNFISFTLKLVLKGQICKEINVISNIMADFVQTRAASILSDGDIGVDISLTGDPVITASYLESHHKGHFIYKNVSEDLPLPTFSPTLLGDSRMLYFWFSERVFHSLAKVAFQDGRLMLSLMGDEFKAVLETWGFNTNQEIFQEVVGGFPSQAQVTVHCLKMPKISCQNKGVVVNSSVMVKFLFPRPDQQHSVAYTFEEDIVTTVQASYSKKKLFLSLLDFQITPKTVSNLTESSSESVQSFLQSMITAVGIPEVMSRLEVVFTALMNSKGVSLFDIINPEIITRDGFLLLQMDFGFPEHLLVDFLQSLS
# In short: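 Healthy-donor plasma spiked with [3H]cholesteryl ester-labelled HDL3 (1,000 dpm/μL) was incubated with compound (DMF vehicle) for 4 hr at 37 °C or 4 °C. HDL was separated by MgCl2/dextran sulfate precipitation and supernatant radioactivity counted. IC50 is the concentration giving 50% inhibition of CETP activity.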
# [2] = system: HDL cholesterol; test: Blood HDL cholesterol increasing effect in normal hamster; type: in vivo; conditions: single oral dose 3 mg/kg, versus solvent group, average values; for HDL cholesterol increase content (%) 4 (hr later): 4 hr after administration; for HDL cholesterol increase content (%) 8 (hr later): 8 hr after administration
# Procedure: (§1) The compound of the present invention was suspended in 0.5% methyl cellulose solution and orally administered once to a healthy hamster with a plastic gavage needle. Blood was taken at 2 or 4 hr after the administration and CETP activity in plasma was measured according to the following method.
# To the plasma (40 μL) obtained from the above-mentioned animal at 4 or 8 hr after the administration was added 15% polyethylene glycol solution (40 μL) and the mixture was thoroughly stirred. After keeping at room temperature for 10 min, the mixture was centrifuged (10,000×g, 4° C., 20 min) and the cholesterol content (HDL cholesterol content) of the obtained supernatant (HDL fraction) was measured. The increase ratio of the HDL cholesterol content of each compound administration group when the HDL cholesterol content of the solvent administration group as 100% was calculated from the following formula and expressed in %. HDL cholesterol increase ratio(%)=[(HDL cholesterol content of each compound administration group/HDL cholesterol content of solvent administration group)×100]−100
# [3] = system: CETP; test: Inhibitory effect exo vivo on CETP activity in total plasma of normal hamster; conditions: average values; for CETP activity (%) 4 (hr later): single oral dose 3 mg/kg, blood taken 4 hr after administration; for CETP activity (%) 2 (hr later): blood taken 2 hr after administration
# Procedure: Potassium bromide (KBr) was added to plasma (40 mL) of healthy subject and the mixture was adjusted to have a specific density d=1.125 g/mL. The mixture was subjected to density gradient centrifugation (227,000×g, 4° C., 17 hr) and a fraction showing a specific density of d>1.125 g/mL (HDL3 fraction) was harvested. The obtained fraction was dialyzed against PBS solution [10 mmol/L Na2HPO4; 10 mmol/L NaH2PO4; 0.15 mol/L NaCl; […] (pH 7.4)]. Then, tritium-labeled cholesterol (37 MBq) was dissolved in 95% ethanol, gradually added to the above-mentioned HDL3 fraction with stirring and incubated at 37° C. for 18 hr. [By this operation, tritium-labeled cholesterol was esterified by the action of lecithin acyl transferase (LCAT) present on the HDL3 surface and taken up into HDL3 as tritium-labeled cholesteryl ester ([^3H]CE)]. After incubation, KBr was added, the mixture was adjusted to have a specific density d=1.21 g/mL, subjected to density gradient centrifugation (227,000×g, 4° C., 17 hr) and a fraction of specific density […] was harvested. The obtained fraction was dialyzed against the aforementioned PBS solution to give HDL3 incorporating [^3H]CE ([^3H]CE-HDL3, specific density: 1.125<d<1.21, specific activity: 10,000 dpm/μL), which was used as a donor lipoprotein.
# as §1
# The donor lipoprotein obtained above was added to hamster plasma (100 μL) to prepare [^3H]CE-HDL3-containing plasma (ca. 1,000 dpm/μL). The [^3H]CE-HDL3-containing plasma was dispensed to two microtubes by 25 μL each, and one was incubated at 37° C. and the other was incubated at 4° C. for 4 hr each. After ice-cooling, TBS solution (50 μl) containing 1 mol/L magnesium chloride and 2% dextran sulfate was added to each microtube and the mixture was thoroughly stirred. After keeping at […] for 30 min, the mixture was centrifuged (10,000×g, 4° C., 20 min), and the radioactivity in the obtained supernatant (HDL fraction) was measured with a liquid scintillation counter. The radioactivity of the [^3H]CE-HDL3-containing plasma was measured with a liquid scintillation counter, and taken as the total radioactivity. The transfer rate of [^3H]CE was calculated from the following formula using the total radioactivity (Total count), radioactivity by 37° C. incubation (37° C. count) and radioactivity by 4° C. incubation (4° C. count) of the sample of each individual and taken as the CETP activity. CETP activity(transfer ratio (%))={[(4° C. count)−(37° C. count)]/(Total count)}×100
# The CETP activity inhibitory ratio of each compound administration group based on the CETP activity of the solvent administration group as 100% was calculated from the following formula and expressed in %.
# CETP activity inhibitory ratio (%)=100−[(CETP activity of each compound administration group)/(CETP activity of solvent administration group)×100]
Compound,IC50 [1],HDL cholesterol increase content (%) 4 (hr later) [2],HDL cholesterol increase content (%) 8 (hr later) [2],CETP activity (%) 4 (hr later) [3],CETP activity (%) 2 (hr later) ([3]; single oral dose 10 mg/kg),CETP activity (%) 2 (hr later) ([3]; single oral dose 30 mg/kg)
"CCN(C[C@H]1CC[C@H](CC(=O)O)CC1)c1cc(C)c(C(F)(F)F)cc1CN(Cc1cc(C(F)(F)F)cc(C(F)(F)F)c1)c1nnn(C)n1.Cl [Example 142, trans-(4-{[N-(2-{[N′-[3,5-bis(trifluoromethyl)benzyl]-N′-(2-methyl-2H-tetrazol-5-yl)amino]methyl}-5-methyl-4-trifluoromethylphenyl)-N-ethylamino]methyl}cyclohexyl)acetic acid hydrochloride]",60 nM,20.3%,31.9%,71.6%,–,–
"CCN(C[C@H]1CC[C@H](CC(=O)O)CC1)c1ccc(C(F)(F)F)cc1CN(Cc1cc(C(F)(F)F)cc(C(F)(F)F)c1)c1nnn(C)n1.Cl [Example 118, trans-(4-{[N-(2-{[N′-[3,5-bis(trifluoromethyl)benzyl]-N′-(2-methyl-2H-tetrazol-5-yl)amino]methyl}-4-trifluoromethylphenyl)-N-ethylamino]methyl}cyclohexyl)acetic acid hydrochloride]",90 nM,21.1%,31.7%,55.4%,–,–
"CCCN(C[C@H]1CC[C@H](CC(=O)O)CC1)c1cc(C)c(C(F)(F)F)cc1CN(Cc1cc(C(F)(F)F)cc(C(F)(F)F)c1)c1nnn(C)n1.Cl [Example 157, trans-(4-{[N-(2-{[N′-[3,5-bis(trifluoromethyl)benzyl]-N′-(2-methyl-2H-tetrazol-5-yl)amino]methyl}-5-methyl-4-trifluoromethylphenyl)-N-propylamino]methyl}cyclohexyl)acetic acid hydrochloride]",–,17.9%,27.1%,80.4%,–,–
"CCN(C[C@H]1CC[C@H](C(=O)O)CC1)c1ccc(C(F)(F)F)cc1CN(Cc1cc(C(F)(F)F)cc(C(F)(F)F)c1)c1nnn(C)n1.Cl [Example 96, trans-4-{[N-(2-{[N′-[3,5-bis(trifluoromethyl)benzyl]-N′-(2-methyl-2H-tetrazol-5-yl)amino]methyl}-4-trifluoromethylphenyl)-N-ethylamino]methyl}cyclohexanecarboxylic acid hydrochloride]",310 nM,–,–,–,41.1%,–
"CCCN(C[C@H]1CC[C@H](CC(=O)O)CC1)c1ccc(C(F)(F)F)cc1CN(Cc1cc(C(F)(F)F)cc(C(F)(F)F)c1)c1nnn(C)n1.Cl [Example 154, trans-(4-{[N-(2-{[N′-[3,5-bis(trifluoromethyl)benzyl]-N′-(2-methyl-2H-tetrazol-5-yl)amino]methyl}-4-trifluoromethylphenyl)-N-propylamino]methyl}cyclohexyl)acetic acid hydrochloride]",–,13.3%,22.4%,64.2%,–,–
"CCN(C[C@H]1CC[C@H](C(=O)O)CC1)c1ccc(OC(F)(F)F)cc1CN(Cc1cc(C(F)(F)F)cc(C(F)(F)F)c1)c1nnn(C)n1.Cl [Example 98, trans-4-[{N-(2-{[N′-[3,5-bis(trifluoromethyl)benzyl]-N′-(2-methyl-2H-tetrazol-5-yl)amino]methyl}-4-trifluoromethoxyphenyl)-N-ethylamino]methyl}cyclohexanecarboxylic acid hydrochloride]",300 nM,–,–,–,43.3%,–
"CCN(CCCCCC(=O)O)c1cc2c(cc1CN(Cc1cc(C(F)(F)F)cc(C(F)(F)F)c1)c1nnn(C)n1)CCC2.Cl [Example 91, 6-[N-(6-{[N′-[3,5-bis(trifluoromethyl)benzyl]-N′-(2-methyl-2H-tetrazol-5-yl)amino]methyl}indan-5-yl)-N-ethylamino]hexanoic acid hydrochloride]",560 nM,–,–,–,44.7%,–
"CCN(CCCCC(=O)O)c1cc2c(cc1CN(Cc1cc(C(F)(F)F)cc(C(F)(F)F)c1)c1cc(C)no1)CCC2.Cl [Example 40, 5-[N-(6-{[N′-[3,5-bis(trifluoromethyl)benzyl]-N′-(3-methylisoxazol-5-yl)amino]methyl}indan-5-yl)-N-ethylamino]pentanoic acid hydrochloride]",390 nM,–,–,–,–,59.5%
"CCN(CCC(C)(C)CC(=O)O)c1ccc(OC(F)(F)F)cc1CN(Cc1cc(C(F)(F)F)cc(C(F)(F)F)c1)c1noc(C)n1.Cl [Example 108, 5-[N-(2-{[N′-[3,5-bis(trifluoromethyl)benzyl]-N′-(5-methyl-[1,2,4]oxadiazol-3-yl)amino]methyl}-4-trifluoromethoxyphenyl)-N-ethylamino]-3,3-dimethylpentanoic acid hydrochloride]",250 nM,–,–,–,53.8%,–
"CCN(C[C@H]1CC[C@H](CC(=O)O)CC1)c1ccc(OC(F)(F)F)cc1CN(Cc1cc(C(F)(F)F)cc(C(F)(F)F)c1)c1nnn(C)n1.Cl [Example 115, trans-(4-{[N-(2-{[N′-[3,5-bis(trifluoromethyl)benzyl]-N′-(2-methyl-2H-tetrazol-5-yl)amino]methyl}-4-trifluoromethoxyphenyl)-N-ethylamino]methyl}cyclohexyl)acetic acid hydrochloride]",90 nM,23.3%,30.7%,62.1%,–,–
"CCCN(C[C@H]1CC[C@H](CC(=O)O)CC1)c1ccc(OC(F)(F)F)cc1CN(Cc1cc(C(F)(F)F)cc(C(F)(F)F)c1)c1nnn(C)n1.Cl [Example 158, trans-(4-{[N-(2-{[N′-[3,5-bis(trifluoromethyl)benzyl]-N′-(2-methyl-2H-tetrazol-5-yl)amino]methyl}-4-trifluoromethoxyphenyl)-N-propylamino]methyl}cyclohexyl)acetic acid hydrochloride]",–,14.8%,23.7%,55.6%,–,–
